Results from ChEMBL document CHEMBL3616435, “Cytotoxic cardenolides from the latex of Calotropis procera” (Bioorg Med Chem Lett, 2015).

Key:
[1] = system: A549; experiment: Cytotoxicity against human A549 cells by MTT assay; format: functional, cell-based
[2] = system: HeLa; experiment: Cytotoxicity against human HeLa cells by MTT assay; format: functional, cell-based
[3] = system: Staphylococcus aureus; experiment: Antimicrobial activity against methicillin-resistant Staphylococcus aureus after 16 hrs by broth microdilution method; format: functional
[4] = system: Bacillus subtilis; experiment: Antimicrobial activity against Bacillus subtilis after 16 hrs by broth microdilution method; format: functional
[5] = system: Escherichia coli; experiment: Antimicrobial activity against Escherichia coli after 16 hrs by broth microdilution method; format: functional
[6] = system: Candida albicans; experiment: Antimicrobial activity against Candida albicans after 16 hrs by broth microdilution method; format: functional

SMILES: C[C@H]1C[C@H]2O[C@@H]3C[C@@H]4CC[C@@H]5[C@H](CC[C@]6(C)[C@@H](C7=CC(=O)OC7)CC[C@]56O)[C@@]4(C=O)C[C@H]3O[C@@]2(O)[C@H](O)[C@@H]1O
- IC50 [1]: 58 nM
- IC50 [2]: 87 nM
- MIC [3]: > 100 µg/mL
- MIC [4]: > 100 µg/mL
- MIC [5]: > 100 µg/mL
- MIC [6]: > 100 µg/mL

SMILES: C[C@@H]1C[C@@H](O)[C@]2(O)O[C@@H]3C[C@@]4(C=O)[C@@H](CC[C@@H]5[C@@H]4CC[C@]4(C)[C@@H](C6=CC(=O)OC6)C[C@@H](O)[C@]54O)C[C@H]3O[C@@H]2C1
- IC50 [1]: 79 nM
- IC50 [2]: 128 nM
- MIC [3]: > 100 µg/mL
- MIC [4]: > 100 µg/mL
- MIC [5]: > 100 µg/mL
- MIC [6]: > 100 µg/mL

SMILES: C[C@@H]1C[C@@H](O)[C@]2(O)O[C@@H]3C[C@@]4(C)[C@@H](CC[C@@H]5[C@@H]4CC[C@]4(C)[C@@H](C6=CC(=O)OC6)C[C@@H](O)[C@]54O)C[C@H]3O[C@@H]2C1
- IC50 [1]: 347 nM
- IC50 [2]: 663 nM
- MIC [3]: > 100 µg/mL
- MIC [4]: > 100 µg/mL
- MIC [5]: > 100 µg/mL
- MIC [6]: > 100 µg/mL

SMILES: C[C@]12[C@H](O)C[C@H]3[C@@H](CC[C@H]4C[C@H](O)CC[C@@]43CO)[C@@]1(O)CC[C@@H]2C1=CC(=O)OC1
- IC50 [1]: 604 nM
- IC50 [2]: 1150 nM
- MIC [3]: > 100 µg/mL
- MIC [4]: > 100 µg/mL
- MIC [5]: > 100 µg/mL
- MIC [6]: > 100 µg/mL

SMILES: C[C@]12[C@H](O)C[C@H]3[C@@H](CC[C@H]4C[C@H](O)CC[C@@]43C=O)[C@@]1(O)CC[C@@H]2C1=CC(=O)OC1
- IC50 [1]: 1020 nM
- IC50 [2]: 1430 nM
- MIC [3]: > 100 µg/mL
- MIC [4]: > 100 µg/mL
- MIC [5]: > 100 µg/mL
- MIC [6]: > 100 µg/mL

SMILES: C[C@]12[C@H](O)C[C@H]3[C@@H](CC[C@H]4C[C@@H](O)CC[C@@]43CO)[C@@]1(O)CC[C@@H]2C1=CC(=O)OC1
- IC50 [1]: 549 nM
- IC50 [2]: 863 nM
- MIC [3]: > 100 µg/mL
- MIC [4]: > 100 µg/mL
- MIC [5]: > 100 µg/mL
- MIC [6]: > 100 µg/mL

SMILES: C[C@@H]1C[C@@]2(N=CCS2)[C@]2(O)O[C@@H]3C[C@@]4(C=O)[C@@H](CC[C@@H]5[C@@H]4CC[C@]4(C)[C@@H](C6=CC(=O)OC6)CC[C@]54O)C[C@H]3O[C@@H]2O1 [USCHARIN]
- IC50 [1]: 104 nM
- IC50 [2]: 275 nM
- MIC [3]: > 100 µg/mL
- MIC [4]: > 100 µg/mL
- MIC [5]: > 100 µg/mL
- MIC [6]: > 100 µg/mL

SMILES: C[C@@H]1C[C@@H](O)[C@]2(O)O[C@@H]3C[C@@]4(C=O)[C@@H](CC[C@@H]5[C@@H]4CC[C@]4(C)[C@@H](C6=CC(=O)OC6)CC[C@]54O)C[C@H]3O[C@@H]2O1 [CALACTIN]
- MIC [3]: > 100 µg/mL
- MIC [4]: > 100 µg/mL
- MIC [5]: > 100 µg/mL
- MIC [6]: > 100 µg/mL

SMILES: C[C@H]1C[C@H]2O[C@@H]3C[C@@H]4CC[C@@H]5[C@H](CC[C@]6(C)[C@@H](C7=CC(=O)OC7)C[C@@H](O)[C@]56O)[C@@]4(C=O)C[C@H]3O[C@@]2(O)[C@@]2(C1)N=CCS2
- IC50 [1]: 157 nM
- IC50 [2]: 318 nM
- MIC [3]: > 100 µg/mL
- MIC [4]: > 100 µg/mL
- MIC [5]: > 100 µg/mL
- MIC [6]: > 100 µg/mL

SMILES: C[C@]12C[C@@H](O)[C@H](O)C[C@@H]1CC[C@@H]1[C@@H]2CC[C@]2(C)[C@@H](C3=CC(=O)OC3)C[C@@H](O)[C@]12O
- IC50 [1]: 1690 nM
- IC50 [2]: 2470 nM
- MIC [3]: > 100 µg/mL
- MIC [4]: > 100 µg/mL
- MIC [5]: > 100 µg/mL
- MIC [6]: > 100 µg/mL

SMILES: CO[C@@H]1C[C@@H](C)C[C@H]2O[C@@H]3C[C@@H]4CC[C@@H]5[C@H](CC[C@]6(C)[C@@H](C7=CC(=O)OC7)C[C@@H](O)[C@]56O)[C@@]4(C=O)C[C@H]3O[C@@]12O
- IC50 [1]: 65 nM
- IC50 [2]: 104 nM
- MIC [3]: > 100 µg/mL
- MIC [4]: > 100 µg/mL
- MIC [5]: > 100 µg/mL
- MIC [6]: > 100 µg/mL
